Legend:
C-MYC [1] = experiment: Western blotting of C-MYC protein levels in cancer cells; format: cell-based, human; conditions: NCI/ADR-RES cells; 0.5 μM; positive control
Method: Cells (5×10^5) were cultured in 6-well plate and treated with KJA03 at designated concentrations. After treatment, cells were lysed with cell lysis buffer on ice at 4° C., sonicated for 3 min, centrifuged (12,000 rpm, 10 min, 4° C.) and then, the supernatant was collected. Protein concentrations of supernatants were evaluated with BCA assay. Proteins were resolved in 10% SDS/PAGE and electrotransferred to Immun-Blot PVDF membrane (Bio-Rad). After blocking with 5% milk in TBST (Tris-buffered saline with 0.1% Tween 20), membranes were probed with primary antibodies (anti-PARP, anti-caspase 3 and anti-GAPDH) 1:1000 dilutions overnight at 4° C. Membranes were then washed with TBST (5 min×3), incubated with Dylight 800-conjugated secondary antibodies 1:7500 dilutions in 5% milk for 1 h at room temperature, and washed with TBST (5 min×3). Fluorescent signal was then scanned by Odyssey Imaging Systems (LI-COR Biosciences).
The effect of KJA03 on the MYC protein levels, including C-MYC and N-MYC, NCI/ADR-RES cells were treated with KJA03 at concentration of 0.1 (half IC50) and 0.2 (IC50) μM for 24 and 48 h. […] It has previously been reported that JQ1 treatment leads to down-regulation of c-MYC protein levels in osteosarcoma, leukemia and lymphoma cells (see, e.g., Mertz, J. A.; et al., Proceedings of the National Academy of Sciences 2011, 108, 16669-16674).
Experiments were conducted to further repeat the experiment and JQ1 was chosen as a positive control. As expected, expression of C-MYC was reduced by KJA03 at 24 h of treatment, correlated with previous experiment (FIG. 3).
Experiments were conducted that further performed a time-course experiment to evaluate C-MYC suppression including 2, 6, 8 24 and 48 h at concentration of 0.2 μM. To define the specificity of MYC suppression in further detail, we treated cells with a range of compound concentrations at 24 h. […] To determine whether KJA03 can suppress C-MYC in different cell lines, we next investigated the level of C-MYC in response to treatment with KJA03 at 0.2 μM using other three different OVCAR8, MIA PaCa-2 and Panc-1 cell lines.

c-MYC [2] = conditions: osteosarcoma, leukemia and lymphoma cells; cited from earlier work
OVCAR8 = experiment: MTT assay (cytotoxicity), OVCAR8; format: cell-based; conditions: Homo sapiens, OVCAR-8, 72 h, drug concentration causing a 50% decrease in cell population
Method: (§1) The evaluation of cytotoxicity was based on the reduction of MTT dye by viable cells to give purple formazan products, which can be measured spectrophotometrically at 540 nm. One hundred eighty microliters of cancer cells were seeded into 96-well plates at 3,500-4,000 cells/well and incubated at 37° C. overnight before the indicated treatments. After 72 h, 20 μl of MTT solution (3 mg/ml) was added and incubated again for 3 h. After removal of media and solubilization of formazan crystals in 150 μL of DMSO, the absorbance was measured at 570 nm. Percentage of cell growth inhibition was expressed as 1-[(A−B)/(C−B)]×100% (A, B and C were the absorbance values from experimental, blank and control cells, respectively).
(§2) KJA derivatives were tested by the MTT assay against five human cancer cell lines including ovarian cancer cell lines (OVCAR-8, NCI/ADR-RES and SKOV3) and pancreatic cancer cell lines (MIA PaCa-2 and Pac-1). […] It is important to note that the NCI/ADR-RES cell line shares a large number of karyotypic abnormalities with OVCAR-8 but expresses high levels of MDR1 (multidrug resistance protein 1)/P-glycoprotein (see, e.g., Xu, S.; et al., Proceedings of the National Academy of Sciences 2012, 109, 16348-16353), resulting in resistance to multiple anticancer drugs in clinical use, including paclitaxel and doxorubicin.

NCI/ADR-RES = experiment: MTT assay (cytotoxicity), NCI/ADR-RES; format: cell-based, human; conditions: Homo sapiens, NCI/ADR-RES; MTT, 72 h; drug concentration causing a 50% decrease in cell population
Method: as §1, §2

SKOV3 = experiment: MTT assay (cytotoxicity), SKOV3; format: cell-based; conditions: Homo sapiens, SK-OV-3, 72 h, drug concentration causing a 50% decrease in cell population
Method: as §1, §2

MIA PaCa-2 = experiment: MTT assay (cytotoxicity), MIA PaCa-2; format: cell-based; conditions: Homo sapiens, 72 h, drug concentration causing a 50% decrease in cell population
Method: as §1, §2

Panc1 = experiment: MTT assay (cytotoxicity), Panc1; format: cell-based; conditions: Homo sapiens, PANC-1, 72 h, drug concentration causing a 50% decrease in cell population
Method: as §1, §2

Compound	C-MYC expression (C-MYC [1])	c-MYC protein levels (c-MYC [2])	IC50 (OVCAR8) [µM]	IC50 (NCI/ADR-RES) [µM]	IC50 (SKOV3) [µM]	IC50 (MIA PaCa-2) [µM]	IC50 (Panc1) [µM]
Cc1sc2c(c1C)C(c1ccc(Cl)cc1)=N[C@@H](CC(=O)OC(C)(C)C)c1nnc(C)n1-2 [JQ1, reference compound]	did not inhibit C-MYC expression	down-regulation					
O=c1onc(-c2ccccc2)n1-c1ccccc1-c1nc(-c2ccccc2)no1 [KJA01, 3-Phenyl-4-(2-(3-phenyl-1,2,4-oxadiazol-5-yl)phenyl)-1,2,4-oxadiazol-5(4H)-one]			4.65 ± 2.05	4.31 ± 0.55	5.82	2.49	2.16
O=c1onc(-c2ccc(Cl)cc2)n1-c1ccccc1-c1nc(-c2ccc(Cl)cc2)no1 [KJA02, 3-(4-Chlorophenyl)-4-(2-(3-(4-chlorophenyl)-1,2,4-oxadiazol-5-yl)phenyl)-1,2,4-oxadiazol-5(4H)-one]			1.96 ± 0.42	4.16 ± 2.61	11.2	1.12	1.51
O=c1onc(-c2ccc(F)cc2)n1-c1ccccc1-c1nc(-c2ccc(F)cc2)no1 [KJA04, 3-(4-Fluorophenyl)-4-(2-(3-(4-fluorophenyl)-1,2,4-oxadiazol-5-yl)phenyl)-1,2,4-oxadiazol-5(4H)-one]			7.21 ± 1.55	7.63 ± 3.01	20.9	5.17	3.22
COc1cc(-c2nc(-c3ccccc3)no2)c(-n2c(-c3ccccc3)noc2=O)cc1OC [KJA06, 4-(4,5-Dimethoxy-2-(3-phenyl-1,2,4-oxadiazol-5-yl)phenyl)-3-phenyl-1,2,4-oxadiazol-5(4H)-one]			> 30	> 30	> 30	> 30	> 30
COc1cc(-c2nc(-c3ccc(Cl)cc3)no2)c(-n2c(-c3ccc(Cl)cc3)noc2=O)cc1OC [KJA09, 3-(4-Chlorophenyl)-4-(2-(3-(4-chlorophenyl)-1,2,4-oxadiazol-5-yl)-4,5-dimethoxyphenyl)-1,2,4-oxadiazol-5(4H)-one]			> 30	> 30	> 30	> 30	> 30
COc1cc(-c2nc(-c3ccccc3Cl)no2)c(-n2c(-c3ccccc3Cl)noc2=O)cc1OC [KJA10, 3-(2-Chlorophenyl)-4-(2-(3-(2-chlorophenyl)-1,2,4-oxadiazol-5-yl)-4,5-dimethoxyphenyl)-1,2,4-oxadiazol-5(4H)-one]			0.71 ± 0.08	2 ± 0.76	3.23 ± 0.37	0.71	1.08
O=c1onc(-c2ccccc2F)n1-c1ccccc1-c1nc(-c2ccccc2F)no1 [KJA17, 3-(2-Fluorophenyl)-4-(2-(3-(2-fluorophenyl)-1,2,4-oxadiazol-5-yl)phenyl)-1,2,4-oxadiazol-5(4H)-one]			9.12 ± 0.88	9.42 ± 1.61	25.6	1.43	3.17
CC(=O)O[C@H]1C(=O)[C@@]2(C)[C@H]([C@H](OC(=O)c3ccccc3)[C@]3(O)C[C@H](OC(=O)[C@H](O)[C@@H](NC(=O)c4ccccc4)c4ccccc4)C(C)=C1C3(C)C)[C@]1(OC(C)=O)CO[C@@H]1C[C@@H]2O [Paclitaxel, reference compound]			< 0.04	> 30		< 0.04	< 0.04
